Assay results taken from US20170319572A1, “COMBINATION DRUG TREATMENT FOR HEPATITIS C INFECTION” (JANSSEN PHARMACEUTICALS, INC., priority 2015, published 2017).

Legend:
Pgp = Pgp (Homo sapiens, UniProt P08183); conditions: cited from earlier work
OATP1B3 = target: T1, OATP1B3 (Homo sapiens, UniProt Q9NPD5); conditions: cited from earlier work
T1 sequence (Q9NPD5 1-702): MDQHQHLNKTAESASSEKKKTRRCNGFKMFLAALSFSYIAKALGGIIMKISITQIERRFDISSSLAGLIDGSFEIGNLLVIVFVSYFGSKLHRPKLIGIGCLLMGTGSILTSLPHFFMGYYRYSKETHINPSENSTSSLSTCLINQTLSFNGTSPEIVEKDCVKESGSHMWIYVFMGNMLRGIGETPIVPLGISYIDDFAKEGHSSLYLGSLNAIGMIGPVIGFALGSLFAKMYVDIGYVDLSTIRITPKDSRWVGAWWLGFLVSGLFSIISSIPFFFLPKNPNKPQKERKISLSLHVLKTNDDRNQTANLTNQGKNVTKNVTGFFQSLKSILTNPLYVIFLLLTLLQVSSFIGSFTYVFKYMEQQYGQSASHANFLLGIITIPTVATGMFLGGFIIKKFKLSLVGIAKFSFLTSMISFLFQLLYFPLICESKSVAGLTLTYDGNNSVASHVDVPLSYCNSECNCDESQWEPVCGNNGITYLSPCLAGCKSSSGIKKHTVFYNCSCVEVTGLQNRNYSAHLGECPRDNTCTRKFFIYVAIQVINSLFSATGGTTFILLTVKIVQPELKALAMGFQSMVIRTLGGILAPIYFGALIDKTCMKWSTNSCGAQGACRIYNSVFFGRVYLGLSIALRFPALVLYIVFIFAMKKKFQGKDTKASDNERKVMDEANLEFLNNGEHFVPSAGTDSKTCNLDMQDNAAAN

[1] = Phase 2a open-label combination study, pharmacokinetics and safety; assay type: in vivo, human; conditions: for change of exposure on reducing ODV dosing from QD to QOD: 50 mg
Protocol: A randomized, Phase 2a, open-label study was carried out to evaluate the safety, pharmacokinetics and efficacy of the combination of Compound (III), Odalasvir and Simeprevir in Genotype 1 treatment-naïve subjects with chronic hepatitis C. Other treatment-naïve subjects included Genotype 2, 3, 4, 5 and 6. The aim of the study was to determine the efficacy, pharmacokinetics (PK), and safety of Compound (III)+Odalasvir±SMV in HCV-infected subjects. […] Efficacy, PK and safety evaluations were conducted during and through 24 weeks post dosing. Up to 15 cohorts were enrolled; data was generated from cohorts that have completed dosing.

MRP3 = MRP3 (Homo sapiens, UniProt O15438); conditions: MRP2/3; cited from earlier work
Sequence of MRP3 (O15438 whole entry): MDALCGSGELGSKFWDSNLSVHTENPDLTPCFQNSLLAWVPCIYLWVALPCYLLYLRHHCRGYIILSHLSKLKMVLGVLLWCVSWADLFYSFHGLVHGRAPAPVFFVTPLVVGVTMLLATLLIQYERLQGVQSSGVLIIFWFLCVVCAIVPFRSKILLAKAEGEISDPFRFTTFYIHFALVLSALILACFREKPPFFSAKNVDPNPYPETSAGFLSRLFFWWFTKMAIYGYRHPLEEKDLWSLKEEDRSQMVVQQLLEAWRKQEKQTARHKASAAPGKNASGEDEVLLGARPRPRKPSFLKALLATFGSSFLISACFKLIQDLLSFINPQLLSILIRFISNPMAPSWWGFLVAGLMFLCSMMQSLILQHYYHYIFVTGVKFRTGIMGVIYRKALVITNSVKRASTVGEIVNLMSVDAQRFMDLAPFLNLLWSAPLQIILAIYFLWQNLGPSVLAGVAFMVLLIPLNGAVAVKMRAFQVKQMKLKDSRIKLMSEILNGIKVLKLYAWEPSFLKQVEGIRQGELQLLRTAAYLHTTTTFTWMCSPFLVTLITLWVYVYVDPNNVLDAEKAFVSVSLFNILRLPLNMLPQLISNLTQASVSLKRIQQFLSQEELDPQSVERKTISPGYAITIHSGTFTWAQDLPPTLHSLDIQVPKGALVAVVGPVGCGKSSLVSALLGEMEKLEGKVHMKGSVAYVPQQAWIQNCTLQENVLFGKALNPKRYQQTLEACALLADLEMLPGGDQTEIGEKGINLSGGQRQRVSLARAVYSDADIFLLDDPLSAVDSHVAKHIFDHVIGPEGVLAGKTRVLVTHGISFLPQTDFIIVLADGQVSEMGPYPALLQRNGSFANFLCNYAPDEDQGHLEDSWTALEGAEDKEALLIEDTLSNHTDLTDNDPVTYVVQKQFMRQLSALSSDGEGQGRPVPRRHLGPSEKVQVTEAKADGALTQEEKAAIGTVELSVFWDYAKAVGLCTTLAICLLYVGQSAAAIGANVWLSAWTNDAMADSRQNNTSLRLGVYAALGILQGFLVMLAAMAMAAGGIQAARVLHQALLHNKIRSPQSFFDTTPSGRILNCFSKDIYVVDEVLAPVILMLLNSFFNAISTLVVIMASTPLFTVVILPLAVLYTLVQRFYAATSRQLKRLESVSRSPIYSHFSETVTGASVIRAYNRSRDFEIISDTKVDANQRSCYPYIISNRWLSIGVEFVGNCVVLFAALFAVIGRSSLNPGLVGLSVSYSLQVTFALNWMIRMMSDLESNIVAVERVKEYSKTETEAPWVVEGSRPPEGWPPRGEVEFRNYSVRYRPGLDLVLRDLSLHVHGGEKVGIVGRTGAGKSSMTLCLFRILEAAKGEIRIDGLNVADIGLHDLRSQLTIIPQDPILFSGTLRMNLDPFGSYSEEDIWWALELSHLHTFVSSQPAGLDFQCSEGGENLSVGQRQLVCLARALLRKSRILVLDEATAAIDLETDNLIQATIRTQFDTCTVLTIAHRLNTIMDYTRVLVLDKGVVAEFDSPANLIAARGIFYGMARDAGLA

BSEP = BSEP (Homo sapiens, UniProt O95342); conditions: cited from earlier work
[2] = PK analysis of fixed dose combinations vs single agents, single dose in healthy volunteers; assay type: in vivo, human; conditions: Arm 2 (FDC02) vs reference (Arm 1); 90% CI in the row below
Protocol: SMV (100 mg), ODV (50 mg), and Compound (III) (800 mg) were administered as three different formulations or together as single doses in vivo to healthy volunteers. The arms of the study included: • Arm 1 (Reference Arm): Single oral doses of single agents, one SMV 100-mg capsule, one ODV 50-mg tablet as granule layered solid dispersion with copovidone and poloxamers, and two Compound (III) 400-mg tablets, administered together. • Arm 2: Single oral dose of fixed dose combination (FDC02): SMV 100 mg+ODV 50 mg as a spray dried solid dispersion with HPMC-AS L in a ratio ODV/HPMC-AS L 1/1 w/w+Compound (III) 800 mg • Arm 3: Single oral dose of fixed dose combination (FDC04): SMV 100 mg+ODV 50 mg as a spray dried solid dispersion with HPMC-AS L in a ratio ODV/HPMC-AS L 1/3 w/w+Compound (III) 800 mg • Arm 4: Single oral dose of fixed dose combination (FDC01): SMV 100 mg+ODV 50 mg as a spray dried solid dispersion with copovidone and poloxamers+Compound (III) 800 mg
PK parameters, including Cmax, tmax, AUClast, and AUC∞ were measured for Compound (III), ODV, SMV, and metabolites Compound A-I and Compound A-3 for each Arm of the study. Arms that included fixed dose combinations (FDC) (Arm 2, Arm 3, and Arm 4) were then compared to a single oral dose (Arm 1, the reference Arm). […]

MRP2 = MRP2 (Homo sapiens, UniProt Q92887); conditions: MRP2/3; cited from earlier work
Sequence of MRP2 (Q92887 whole entry): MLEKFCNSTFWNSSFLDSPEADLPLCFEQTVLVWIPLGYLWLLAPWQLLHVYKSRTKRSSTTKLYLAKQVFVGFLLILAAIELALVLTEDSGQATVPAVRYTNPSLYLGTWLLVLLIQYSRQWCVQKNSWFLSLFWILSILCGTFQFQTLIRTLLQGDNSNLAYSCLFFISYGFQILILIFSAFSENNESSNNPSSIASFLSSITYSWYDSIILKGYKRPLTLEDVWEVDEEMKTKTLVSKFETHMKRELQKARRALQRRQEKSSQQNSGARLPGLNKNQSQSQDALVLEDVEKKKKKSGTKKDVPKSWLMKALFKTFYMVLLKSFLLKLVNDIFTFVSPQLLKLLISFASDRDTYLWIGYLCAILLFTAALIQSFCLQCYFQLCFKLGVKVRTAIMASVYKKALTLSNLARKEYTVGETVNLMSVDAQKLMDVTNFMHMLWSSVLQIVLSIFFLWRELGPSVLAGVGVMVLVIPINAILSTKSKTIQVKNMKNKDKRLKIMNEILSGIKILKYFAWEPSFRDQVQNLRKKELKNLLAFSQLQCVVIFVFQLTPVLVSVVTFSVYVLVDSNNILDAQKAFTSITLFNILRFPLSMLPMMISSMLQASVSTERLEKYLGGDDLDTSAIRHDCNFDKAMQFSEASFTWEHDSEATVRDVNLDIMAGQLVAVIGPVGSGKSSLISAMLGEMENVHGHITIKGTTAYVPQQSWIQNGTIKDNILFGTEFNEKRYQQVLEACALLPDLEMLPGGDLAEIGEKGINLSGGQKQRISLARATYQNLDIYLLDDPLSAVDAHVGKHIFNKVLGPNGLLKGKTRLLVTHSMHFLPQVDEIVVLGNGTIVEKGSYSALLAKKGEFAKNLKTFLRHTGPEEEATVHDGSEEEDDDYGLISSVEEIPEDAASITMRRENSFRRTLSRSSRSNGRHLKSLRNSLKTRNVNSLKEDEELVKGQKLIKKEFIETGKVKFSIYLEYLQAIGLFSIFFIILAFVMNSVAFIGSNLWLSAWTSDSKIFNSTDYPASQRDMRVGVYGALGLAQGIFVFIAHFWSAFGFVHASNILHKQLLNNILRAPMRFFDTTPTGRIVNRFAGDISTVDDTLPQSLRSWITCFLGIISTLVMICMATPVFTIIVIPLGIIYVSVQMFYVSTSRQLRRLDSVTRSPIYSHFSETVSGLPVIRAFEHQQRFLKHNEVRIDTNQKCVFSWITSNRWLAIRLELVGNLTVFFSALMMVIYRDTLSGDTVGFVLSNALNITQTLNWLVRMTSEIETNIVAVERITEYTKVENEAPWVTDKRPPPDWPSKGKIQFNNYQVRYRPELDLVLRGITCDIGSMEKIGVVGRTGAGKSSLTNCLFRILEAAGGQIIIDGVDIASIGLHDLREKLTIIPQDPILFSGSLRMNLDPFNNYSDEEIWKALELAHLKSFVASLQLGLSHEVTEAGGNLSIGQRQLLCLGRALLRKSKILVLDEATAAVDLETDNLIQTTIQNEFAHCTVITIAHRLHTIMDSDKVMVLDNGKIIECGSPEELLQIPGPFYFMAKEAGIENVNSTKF

Sequence of Pgp (P08183 whole entry): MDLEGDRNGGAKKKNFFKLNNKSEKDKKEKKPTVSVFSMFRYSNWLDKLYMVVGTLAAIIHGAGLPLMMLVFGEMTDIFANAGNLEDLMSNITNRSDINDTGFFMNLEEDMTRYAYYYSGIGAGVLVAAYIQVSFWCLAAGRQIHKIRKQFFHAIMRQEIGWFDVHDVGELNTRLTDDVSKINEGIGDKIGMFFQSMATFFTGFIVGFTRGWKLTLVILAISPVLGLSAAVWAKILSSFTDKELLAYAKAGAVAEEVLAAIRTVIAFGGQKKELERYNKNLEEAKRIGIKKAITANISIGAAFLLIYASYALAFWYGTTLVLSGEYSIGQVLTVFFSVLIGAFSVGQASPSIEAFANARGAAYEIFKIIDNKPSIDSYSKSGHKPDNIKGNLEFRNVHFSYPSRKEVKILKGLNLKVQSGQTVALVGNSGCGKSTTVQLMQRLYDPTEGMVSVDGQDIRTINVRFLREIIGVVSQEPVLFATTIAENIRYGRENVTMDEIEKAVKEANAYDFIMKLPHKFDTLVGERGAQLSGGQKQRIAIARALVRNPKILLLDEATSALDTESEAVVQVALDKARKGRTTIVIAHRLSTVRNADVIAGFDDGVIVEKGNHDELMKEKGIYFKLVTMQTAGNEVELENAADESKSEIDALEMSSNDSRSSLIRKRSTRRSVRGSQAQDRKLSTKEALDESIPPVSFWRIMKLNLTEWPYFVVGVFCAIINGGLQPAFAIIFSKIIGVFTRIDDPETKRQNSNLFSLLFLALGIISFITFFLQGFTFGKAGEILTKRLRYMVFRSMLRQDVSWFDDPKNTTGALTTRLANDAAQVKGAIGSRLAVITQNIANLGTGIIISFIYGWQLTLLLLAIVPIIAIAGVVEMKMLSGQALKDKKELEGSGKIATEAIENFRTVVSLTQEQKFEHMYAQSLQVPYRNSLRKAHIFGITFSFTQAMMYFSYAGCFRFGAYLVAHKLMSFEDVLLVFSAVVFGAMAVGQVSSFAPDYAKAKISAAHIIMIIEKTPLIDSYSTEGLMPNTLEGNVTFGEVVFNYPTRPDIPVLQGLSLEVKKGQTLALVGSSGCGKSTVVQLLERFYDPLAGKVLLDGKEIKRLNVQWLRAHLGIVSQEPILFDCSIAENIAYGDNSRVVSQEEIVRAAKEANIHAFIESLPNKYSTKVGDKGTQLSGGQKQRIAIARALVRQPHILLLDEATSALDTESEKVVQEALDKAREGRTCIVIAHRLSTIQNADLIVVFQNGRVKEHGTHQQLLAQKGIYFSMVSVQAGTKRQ

SMILES	in vitro inhibition of Pgp (Pgp)	inhibition of OATP1B3 (OATP1B3)	change of exposure on reducing ODV dosing from QD to QOD [1]	change of exposure on reducing ODV dosing from QD to QOD ([1]; listed as Odalasvir)	observed exposure in Cohort 1 / group (i) ([1]; Compound (III) 400 mg, ODV 50 mg QD, SMV 100 mg QD)	inhibition of MRP3 (MRP3)	inhibition of BSEP (BSEP)	Least Square Means Ratio, Cmax [2] [%]	inhibition of MRP2 (MRP2)
CC(C)OC(=O)[C@H](C)N[P@](=O)(OC[C@@]1(F)O[C@@H](n2ccc(=O)[nH]c2=O)[C@](C)(O)[C@@H]1O)Oc1ccccc1 [Compound (III), isopropyl ((S)-(((2S,3S,4R,5R)-5-(2,4-dioxo-3,4-dihydropyrimidin-1 (2H)-yl)-2-fluoro-3,4-dihydroxy-4-methyltetrahydrofuran-2-yl)methoxy)(phenoxy)phosphoryl)-L-alaninate]	no in vitro inhibition	no in vitro inhibition	–	–	–	–	–	–	–
COC(=O)N[C@H](C(=O)N1[C@H](c2nc3cc(-c4cc5ccc4CCc4ccc(c(-c6ccc7[nH]c([C@@H]8C[C@@H]9CCCC[C@@H]9N8C(=O)[C@@H](NC(=O)OC)C(C)C)nc7c6)c4)CC5)ccc3[nH]2)C[C@@H]2CCCC[C@@H]21)C(C)C [ODV, methyl [(2S)-1-[(2S,3aS,7aS)-2-[6-[11-[2-[(2S,3aS,7aS)-1-[(2S)-2-[(methoxycarbonyl)amino]-3-methylbutanoyl]octahydro-1H-indol-2-yl]-1H-benzimidazol-6-yl]tricyclo[8.2.2.2^4,7]hexadeca-1(12),4,6,10,13,15-hexaen-5-yl]-1H-benzimidazol-2-yl]octahydro-1H-indol-1-yl]-3-methyl-1-oxobutan-2-yl]carbamate]	–	no inhibition	decreased ODV exposure proportionally	decreased Odalasvir exposure proportionally	higher than anticipated	no inhibition	no inhibition	81.00	no inhibition
